Entries after “also recorded” stand apart in the source; their conditions may differ.
What was measured:
[1] = test system: Namalwa cells (human Burkitt Lymphoma); assay: Namalwa cell apoptosis (Propidium iodide staining, flow cytometry); assay type: cell-based; details: 3 days; for effect of combination with VPA on inducing apoptosis: FIGS. 4 and 6
Protocol: (§1) Namalwa were cultured in RPMI-1640 media (Invitrogen, Carlsbad) supplemented with 10% fetal bovine serum, penicillin (100 u/ml) and streptomycin (100 μg/ml). CD34^+ cells were expanded in serum free conditions in Iscove's DMEM (Invitrogen, Carlsbad, Calif.) supplemented with 20% serum substitute BIT (StemCell Techologies, Vancouver, BC) in the presence of SCF (100 ng/ml), Flt3-L (100 ng/ml) and IL-3 (20 ng/ml) (Biosource International, Camarillo, Calif.). Namalwa cells and CD34+ cells were cultured for 3 and 6 days, respectively. DMSO 0.1%, Comp. 1 or Comp. 2, valproic acid (VPA) or trichostatin A (TSA) at the concentration indicated were added during the 3 or 6 days of culture. BM-CD34+ cells were cultured in Iscove's MDM with BIT 95000 (StemCell technologies) in the presence of growth factors. During the first 6 days CD34^+ cells were expanded with SCF (100 ng/ml), Flt3-L (100 ng/ml), and IL-3 (20 ng/ml) and then differentiated toward the erythroid lineage by culture with SCF (50 ng/ml) and EPO (2U or 4 U/ml) for 6 days. To study the effect of immunomodulatory compounds, CD34^+ progenitor cells were differentiated for a period of 6 days in the presence or absence of Comp. 1, Comp. 2 or hydroxyurea (HU).
(§2) Namalwa and CD34^+ cells were plated at 4000 and 2000 cells per well, respectively into 96-well plate and treated with compound. After the time indicated, cells were counted and phenotypically analyzed by flow cytometry using the FACSarray. The percentage of apoptotic cells and CD34^+ cells were monitored using Propidium iodide staining (BD pharmingen, Chicago, Ill.) and the antibody anti-CD34 (PE-conjugated) (BD pharmingen), respectively, according to the manufacturer experimental procedure.

[2] = test system: Namalwa cells (human Burkitt Lymphoma); assay: Namalwa cell proliferation (cell count by flow cytometry; BrDu incorporation); assay type: cell-based; details: 3 days; for effect of combination with VPA on cell proliferation arrest: FIGS. 3 and 5
Protocol: as §1, §2
Namalwa cells were plated at 10,000 cells per well in 96 well plates and treated with TSA and Comp. 1 at the concentration indicated for 3 days. The effects of TSA and Comp. 1 on cell proliferation were measured using BrDu incorporation kit (Roche, Germany).

[3] = test system: CD34+ hematopoietic stem cells from a healthy donor; assay: Fetal hemoglobin expression in CD34+ cells from a healthy donor differentiated towards erythrocytes; assay type: cell-based; details: for percentage of HbF expressing cells: compound alone, healthy donor, after 6 days of culture, in a dose dependent manner; for effect of combination with HU on HbF expression: healthy (normal) donor, HU at 10 μM added to the growth cocktail, 6 days, FIG. 15
Protocol: as §1
(§3) After 6 days of culture, cells were washed with phosphate-buffered saline (PBS), fixed with 2% paraformaldehyde, permeabilized with cytopermeafix (BD-pharmingen), stained with HbF-PE (BD Pharmingen, San Diego, Calif.) and analyzed by flow cytometry (FACSAria, BD pharmingen).

[4] = test system: cord blood CD34+ cells; assay: Expansion of cord blood-derived CD34+ cells (cell count and anti-CD34 flow cytometry); assay type: cell-based; details: for effects of combination with TSA on CD34+ expansion, CD34+ cell number / effects of combination with TSA on CD34+ expansion, percent of CD34+ cells / effects of combination with VPA on CD34+ expansion, CD34+ cell number / effects of combination with VPA on CD34+ expansion, percent of CD34+ cells / number of CD34+ cells / percent of CD34+ cells: after 6 days of culture; for effects of combination with TSA on CD34+ expansion, CD34+ cell number: FIGS. 7 and 9; for effects of combination with TSA on CD34+ expansion, percent of CD34+ cells: FIGS. 8 and 10; for effects of combination with VPA on CD34+ expansion, CD34+ cell number: FIGS. 11 and 13; for effects of combination with VPA on CD34+ expansion, percent of CD34+ cells: FIGS. 12 and 14; for number of CD34+ cells / percent of CD34+ cells: compound alone, in a dose dependent manner; for kind of combination effect with VPA on CD34+ expansion (number and percent): tables in FIGS. 11-14
Protocol: as §1, §2

[5] = test system: CD34+ cells from sickle cell anemic patient (SCA); assay: Fetal hemoglobin expression in CD34+ cells from sickle cell anemic patient differentiated towards erythrocytes; assay type: cell-based
Protocol: Namalwa CSN.70 cells were purchased from DSMZ (Brauschweig, Germany). Bone marrow and cord blood CD34^+ cells were purchased Cambrex (Walkersville, Md.) and AllCells (Emeryville, Calif.), respectively. Bone marrow CD34+ cells from Sickle Cell Anemic (SCA) patient were provided by Christopher Morris (Loma Linda University Medical Center, CA).
Namalwa were cultured in RPMI-1640 media (Invitrogen, Carlsbad) supplemented with 10% fetal bovine serum, penicillin (100 u/ml) and streptomycin (100 μg/ml). CD34^+ cells were expanded in serum free conditions in Iscove's DMEM (Invitrogen, Carlsbad, Calif.) supplemented with 20% serum substitute BIT (StemCell Techologies, Vancouver, BC) in the presence of SCF (100 ng/ml), Flt3-L (100 ng/ml) and IL-3 (20 ng/ml) (Biosource International, Camarillo, Calif.). Namalwa cells and CD34+ cells were cultured for 3 and 6 days, respectively. DMSO 0.1%, Comp. 1 or Comp. 2, valproic acid (VPA) or trichostatin A (TSA) at the concentration indicated were added during the 3 or 6 days of culture. […]
as §3

[6] = cited from earlier work; for relative stability among polymorphs: Form A: among anhydrous polymorphs, Form E: in aqueous solvent systems; for hygroscopicity: polymorphic form of 3-(4-amino-1-oxo-1,3 dihydro-isoindol-2-yl)-piperidene-2,6-dione; for conversion upon heating (desolvation experiments): Form E: about 125° C. for about five minutes, Form B: 175° C. for about five minutes; for interconversion in solvent systems or at higher relative humidity: interconversion studies

With `Nc1cccc2c1C(=O)N(C1CCC(=O)NC1=O)C2=O` (stereo not drawn) [Compound 1, 4-(amino)-2-(2,6-dioxo(3-piperidyl))-isoindoline-1,3-dione] the “effect of combination with VPA on inducing apoptosis” value [1] was “synergistic and additive; also recorded: additive and synergistic”, the “effect of combination with TSA on inducing apoptosis” value ([1]; TSA at 10 nM, FIG. 2) was “synergistic and additive” and the “effect of combination with VPA on cell proliferation arrest” value [2] was “synergistic and additive; also recorded: additive and synergistic”. For the same compound, the “effect of combination with TSA on cell proliferation arrest” value ([2]; TSA at 10 nM, FIG. 1) was “synergistic and additive”, the “percentage of HbF expressing cells” value [3] was “increased” and the “effect of combination with HU on HbF expression” value (“effect of combination with HU” for short) [3] was “significantly improved the effect of Compound 1 and Compound 2 on HbF expression in a synergistic manner”. For the same compound, the “effect of the addition of TSA on the compound's effect on CD34+ expansion” value ([4]; TSA at 10 nM added to the growth cocktail, 6 days) was “significantly improved”, the “effect of the addition of VPA on the compound's effect on CD34+ expansion” value ([4]; VPA at 0.1, 0.3 and 1 mM added to the growth cocktail, 6 days) was “significantly improved” and the “effects of combination with TSA on CD34+ expansion, CD34+ cell number” value [4] was “additive and synergistic”. For the same compound, the “effects of combination with TSA on CD34+ expansion, percent of CD34+ cells” value [4] was “additive and synergistic”, the “effects of combination with VPA on CD34+ expansion, CD34+ cell number” value [4] was “additive and synergistic” and the “effects of combination with VPA on CD34+ expansion, percent of CD34+ cells” value [4] was “additive and synergistic”. The “number of CD34+ cells” value [4] was “increased”, the “percent of CD34+ cells” value [4] was “increased” and the “kind of combination effect on CD34+ expansion (number and percent), partner printed as VPA” value ([4]; tables in FIGS. 7-10, which belong to the TSA experiments, 6 days) was “additive to Compound 1, and in some conditions, a synergistic effect was observed”. For the same compound, the “kind of combination effect with VPA on CD34+ expansion (number and percent)” value ([4]; 6 days) was “additive to Compound 1, and in some conditions, a synergistic effect was observed”, the “effect of combination with HU” value ([5]; HU at 10 μM added to the growth cocktail, 6 days, FIG. 16) was “significantly improved the effect of Compound 1 on HbF expression in a synergistic manner” and the “percentage of HbF expressing cells” value ([5]; compound alone, after 6 days of culture, in a dose dependent manner) was “increased”.
With `Nc1cccc2c1CN(C1CCC(=O)NC1=O)C2=O` (stereo not drawn) [Compound 2, 3-(4-amino-1-oxo-1,3-dihydro-isoindol-2-yl)-piperidine-2,6-dione] the “effect of combination with VPA on inducing apoptosis” value [1] was “synergistic and additive; also recorded: additive and synergistic”, the “effect of combination with VPA on cell proliferation arrest” value [2] was “synergistic and additive; also recorded: additive and synergistic” and the “percentage of HbF expressing cells” value [3] was “increased”. The “effect of combination with HU” value [3] was “significantly improved the effect of Compound 1 and Compound 2 on HbF expression in a synergistic manner”, the “effect of the addition of TSA on the compound's effect on CD34+ expansion” value ([4]; TSA at 1 and 10 nM added to the growth cocktail, 6 days) was “significantly improved” and the “effect of the addition of VPA on the compound's effect on CD34+ expansion” value ([4]; VPA at 0.1 and 0.3 mM added to the growth cocktail, 6 days) was “significantly improved”. For the same compound, the “effects of combination with TSA on CD34+ expansion, CD34+ cell number” value [4] was “additive and synergistic”, the “effects of combination with TSA on CD34+ expansion, percent of CD34+ cells” value [4] was “additive and synergistic” and the “effects of combination with VPA on CD34+ expansion, CD34+ cell number” value [4] was “additive and synergistic”. For the same compound, the “effects of combination with VPA on CD34+ expansion, percent of CD34+ cells” value [4] was “additive and synergistic”, the “number of CD34+ cells” value [4] was “increased” and the “percent of CD34+ cells” value [4] was “increased”. The “kind of combination effect with VPA on CD34+ expansion (number and percent)” value ([4]; 6 days) was “additive to Compound 2, and in some conditions, a synergistic effect was observed”.
For `Nc1cccc2c1CN(C1CCC(=O)NC1=O)C2=O` (stereo not drawn) [Form A, 3-(4-amino-1-oxo-1,3 dihydro-isoindol-2-yl)-piperidene-2,6-dione], the “relative stability among polymorphs” value [6] is listed as “most thermodynamically stable anhydrous polymorph” and the hygroscopicity [6] is listed as “weakly or not hygroscopic”.
For `Nc1cccc2c1CN(C1CCC(=O)NC1=O)C2=O` (stereo not drawn) [Form B, 3-(4-amino-1-oxo-1,3 dihydro-isoindol-2-yl)-piperidene-2,6-dione], the “conversion upon heating (desolvation experiments)” value [6] is listed as “can convert to Form F” and the “interconversion in solvent systems or at higher relative humidity” value (from here on “interconversion … at higher relative humidity”) [6] is listed as “converts to Form E in aqueous solvent systems, and converts to other forms in acetone and other anhydrous systems”.
For `Nc1cccc2c1CN(C1CCC(=O)NC1=O)C2=O` (stereo not drawn) [Form C, 3-(4-amino-1-oxo-1,3 dihydro-isoindol-2-yl)-piperidene-2,6-dione], the “interconversion … at higher relative humidity” value [6] is given as “can convert to Form B at higher relative humidities” and the hygroscopicity [6] is given as “not hygroscopic below about 85% RH”.
For `Nc1cccc2c1CN(C1CCC(=O)NC1=O)C2=O` (stereo not drawn) [Form D, 3-(4-amino-1-oxo-1,3 dihydro-isoindol-2-yl)-piperidene-2,6-dione], the “interconversion … at higher relative humidity” value [6] is given as “convert to Form B when stressed at higher relative humidities” and the hygroscopicity [6] is given as “either weakly or not hygroscopic”.
For `Nc1cccc2c1CN(C1CCC(=O)NC1=O)C2=O` (stereo not drawn) [Form E, 3-(4-amino-1-oxo-1,3 dihydro-isoindol-2-yl)-piperidene-2,6-dione], the “relative stability among polymorphs” value [6] is given as “most stable form”, the “conversion upon heating (desolvation experiments)” value [6] is given as “can convert to Form B” and the “interconversion … at higher relative humidity” value [6] is given as “can convert to Form C in an acetone solvent system and to Form G in a THF solvent system”.
